Laboratory results published in publication PMC9508196 (Scientific Reports, 2022).
Non-standard residues stand in square brackets, D forms with d. Residues, ends and D or L forms follow the SMILES beside them.

How the values were obtained:
[1] = system: A. baumannii A-8.2–1 (XDR); assay: microbe, parasite or virus in culture; assay type: cell-based, Acinetobacter baumannii; conditions: clinical isolate A-8.2–1 (XDR), blood
Description: (§1) Ten strains of both Gram-positive and -negative bacteria, including Staphylococcus aureus ATCC 25,923, S. epidermidis ATCC 12,228, Bacillus cereus ATCC 11,778, Listeria monocytogenes 10403S, Salmonella typhimurium ATCC 13,311, Pseudomonas aeruginosa ATCC 27,853, Shigella sonnei ATCC 11,060, A. baumannii ATCC 19,606, Escherichia coli ATCC 25,922 and E. coli O157:H7, were used in this study. Eight clinical isolates of multidrug-resistant (MDR) and extensively drug-resistant (XDR) A. baumannii, isolated from human (blood, sputum, respiratory sample, sterile site sample and urine), were kindly provided by Asst. Prof. Dr. Sakawrat Kanthawong (Faculty of Medicine, Khon Kaen University, Thailand) (Table S1). All bacterial strains, excluding L. monocytogenes 10403S and E. coli, were cultured in tryptic soy broth (TSB). L. monocytogenes was grown in TSB supplemented with 0.6% yeast extract (TSB-YE), and E. coli was cultured in Luria broth (LB). All of bacteria were cultured at 37 °C with continuous shaking at 220 rpm.
(§2) Minimum inhibitory concentration (MIC) of peptides and antibiotics was assessed by a modified version of the broth microdilution method from the Clinical and Laboratory Standards Institute (CLSI) as previously described. In brief, mid-log phase growths of microbial strains were cultured in Müeller-Hinton broth (MHB) with an initial inoculum of 2–8 × 10^5 CFU/mL. Bacteria suspensions were incubated in sterile 96-well plates with test agents at desired concentrations. […] Minimum bactericidal concentration (MBC) determination was performed using a modified version of the colony count assay. In brief, fifty µl of all non-turbid wells from MIC experiments were spread on agar plates. The MBC value was defined as the lowest concentration of peptides with no colony growth on the plate. All assays were performed in triplicate.

[2] = system: A. baumannii ATCC 19,606; assay: microbe, parasite or virus in culture; assay type: cell-based, Acinetobacter baumannii; conditions: A. baumannii ATCC 19,606, triplicate
Description: as §1, §2

[3] = system: A. baumannii B-8.1–1 (MDR); assay: microbe, parasite or virus in culture; assay type: cell-based, Acinetobacter baumannii; conditions: clinical isolate B-8.1–1 (MDR), respiratory tract
Description: as §1, §2

[4] = system: A. baumannii B-8.1–2 (MDR); assay: microbe, parasite or virus in culture; assay type: cell-based, Acinetobacter baumannii; conditions: clinical isolate B-8.1–2 (MDR), respiratory tract
Description: as §1, §2

[5] = system: A. baumannii B-8.2–2 (XDR); assay: microbe, parasite or virus in culture; assay type: cell-based, Acinetobacter baumannii; conditions: clinical isolate B-8.2–2 (XDR), respiratory tract
Description: as §1, §2

[6] = system: A. baumannii C-8.1–2 (MDR); assay: microbe, parasite or virus in culture; assay type: cell-based, Acinetobacter baumannii; conditions: clinical isolate C-8.1–2 (MDR), sterile site
Description: as §1, §2

[7] = system: A. baumannii C-8.2–1 (XDR); assay: microbe, parasite or virus in culture; assay type: cell-based, Acinetobacter baumannii; conditions: clinical isolate C-8.2–1 (XDR), sterile site
Description: as §1, §2

[8] = system: human red blood cells (hRBCs); assay: Hemolysis assay; assay type: cell-based; conditions: hRBCs, peptide 250 µg/mL, 1 h, 37 °C
Experimental: The hemolytic activity of peptides was determined as the amount of hemoglobin released from lysed human red blood cells (hRBCs) after treatment with peptide. Fresh hRBCs were collected from a healthy volunteer in polycarbonate tubes containing heparin. Then, the collected packed RBCs were washed at least three times (or until the supernatant was clear) with sterile phosphate-buffered saline pH 7.4 (PBS) and centrifuged at 2,000 × g for 5 min. The 2% (v/v) of washed hRBCs in PBS were incubated with serially diluted peptides (0.98 to 250 μg/ml) for 1 h at 37 °C. After centrifugation, the supernatants were monitored for optical density (OD) at 405 nm using a Multiskan FC Microplate Reader[21]. Values for 0% (negative control) and 100% (positive control) lysis were determined by incubating the hRBCs with PBS only (ODBlank) and 0.1% (v/v) Triton X-100 (ODTriton X-100), respectively. The experiments were performed in triplicate. The percent hemolysis was calculated according to the following equation: %Hemolysis=ODSample-ODBlank/ODTriton X-100-ODBlank×100

[9] = system: A. baumannii ATCC 19,606; assay: Peptide stability in human plasma (MIC/MBC after pre-incubation); assay type: cell-based, Acinetobacter baumannii; conditions: peptide mixed with pure human plasma, 1 h, 37 °C, then two-fold diluted in MHB, bacteria 24 h
Experimental: as §2
(§3) The MIC and MBC assays were performed after peptide was exposed to various conditions, including proteolytic enzymes, serum salts and human plasma. […] To determine peptide sensitivity to physiological salts, approximately 5 × 10^5 CFU/ml of A. baumannii ATCC 19,606 was mixed with the MHB containing different physiological salts at final concentration as follows: 150 mM NaCl, 4.5 mM KCl, 1 mM MgCl2, 6 µM NH4Cl, 8 µM ZnCl2, 4 µM FeCl3 and […]. After treatment, the MIC was evaluated as described in 2.4. To test the stability of peptides in human plasma, peptide was mixed with pure human plasma, and the mixture was incubated for 1 h at 37 °C. Then, the mixture was two-fold serially diluted with sterile MHB. The peptides at final concentrations of 0.98 to 250 µg/ml were incubated with an equal volume of bacterial suspension at 37 °C for 24 h. MIC values were determined as described in 2.4.

[10] = system: A. baumannii ATCC 19,606; assay: Peptide stability to proteolytic enzymes (MIC/MBC after pre-incubation); assay type: cell-based, Acinetobacter baumannii
Experimental: as §2, §3

[11] = system: A. baumannii ATCC 19,606; assay: Peptide sensitivity to physiological salts (MIC/MBC); assay type: cell-based, Acinetobacter baumannii
Experimental: as §2, §3

[12] = control: absence of human plasma and proteolytic enzymes, A. baumannii ATCC 19,606
[13] = peptide pre-incubated with 1 mg/ml pepsin, 37 °C, 1 h
[14] = peptide pre-incubated with 1 mg/ml proteinase K, 37 °C, 1 h
[15] = peptide pre-incubated with 1 mg/ml trypsin, 37 °C, 1 h
[16] = control: absence of serum salts, MHB

## CC[C@@H](C)[C@@H](NC(=O)[C@@H](CCCCN)NC(=O)CNC(=O)[C@@H](C)NC(=O)[C@H](NC(=O)[C@@H](CCCCN)NC(=O)[C@@H](CCCCN)NC(=O)[C@H](NC(=O)[C@@H](CCCNC(=N)N)NC(=O)[C@@H](CCCNC(=N)N)NC(=O)[C@@H](Cc1ccccc1)NC(=O)[C@@H](CC(C)C)NC(=O)[C@H](N)CCCNC(=N)N)C(C)C)C(C)C)C(=O)N[C@H](C)C(=O)N[C@H](CCCCN)C(=O)N[C@H](CCCNC(=N)N)C(=O)N[C@@H](C(=O)N[C@H](Cc1c[nH]c2ccccc12)C(=O)N[C@H](CCCCN)C(N)=O)[C@H](C)CC [D-AP19] (H-[dR][dL][dF][dR][dR][dV][dK][dK][dV][dA]G[dK][dI][dA][dK][dR][dI][dW][dK]-NH2)
[1]
  MBC: 7.81(7.81) µg/ml
  MIC: 7.81(7.81) µg/ml
[2]; broth microdilution (modified CLSI), MHB, 2–8 × 10^5 CFU/mL, 24 h, 37 °C
  MIC: 7.81 (7.81) µg/ml
[2]; colony count from non-turbid MIC wells
  MBC: 7.81 (7.81) µg/ml
[3]
  MBC: 7.81(7.81) µg/ml
  MIC: 7.81(7.81) µg/ml
[4]
  MBC: 15.63(15.63) µg/ml
  MIC: 15.63(15.63) µg/ml
[5]
  MBC: 7.81(7.81) µg/ml
  MIC: 7.81(7.81) µg/ml
[6]
  MBC: 3.91(3.91) µg/ml
  MIC: 3.91(3.91) µg/ml
[7]
  MBC: 7.81(7.81) µg/ml
  MIC: 7.81(7.81) µg/ml
[8]
  Hemolysis: 3.28%
[9]
  MBC in the presence of human plasma: 31.25(31.25) µg/ml
  MIC in the presence of human plasma: 31.25(31.25) µg/ml
[10]; [12]
  MBC, control: 7.81(7.81) µg/ml
  MIC, control: 7.81(7.81) µg/ml
[10]; [13]
  MBC in the presence of pepsin: 15.63(15.63) µg/ml
  MIC in the presence of pepsin: 15.63(15.63) µg/ml
[10]; [14]
  MBC in the presence of proteinase K: 7.81(7.81) µg/ml
  MIC in the presence of proteinase K: 7.81(7.81) µg/ml
[10]; [15]
  MBC in the presence of trypsin: 7.81(7.81) µg/ml
  MIC in the presence of trypsin: 7.81(7.81) µg/ml
[11]; MHB with 4 µM FeCl3
  MBC in the presence of FeCl3: 15.63(15.63) µg/ml
  MIC in the presence of FeCl3: 15.63(15.63) µg/ml
[11]; MHB with 6 µM NH4Cl
  MBC in the presence of NH4Cl: 7.81(7.81) µg/ml
  MIC in the presence of NH4Cl: 7.81(7.81) µg/ml
[11]; MHB with 8 µM ZnCl2
  MBC in the presence of ZnCl2: 15.63(15.63) µg/ml
  MIC in the presence of ZnCl2: 15.63(15.63) µg/ml
[11]; MHB with 1 mM MgCl2
  MBC in the presence of MgCl2: 7.81(7.81) µg/ml
  MIC in the presence of MgCl2: 7.81(7.81) µg/ml
[11]; MHB with 4.5 mM KCl
  MBC in the presence of KCl: 15.63(15.63) µg/ml
  MIC in the presence of KCl: 15.63(15.63) µg/ml
[11]; MHB with 150 mM NaCl
  MBC in the presence of NaCl: 62.5(62.5) µg/ml
  MIC in the presence of NaCl: 62.5(62.5) µg/ml
[11]; MHB with […] CaCl2
  MBC in the presence of CaCl2: 15.63(15.63) µg/ml
  MIC in the presence of CaCl2: 15.63(15.63) µg/ml
[11]; [16]
  MBC, control: 7.81(7.81) µg/ml
  MIC, control: 7.81(7.81) µg/ml
